US20080306055A1, “Heterocyclic Mchr1 Antagonists And Their Use In Therapy” (ASTRAZENECA AB, priority 2004, published 2008)

Key:
recombinant hMCHr1 = molecular target: T1, recombinant hMCHr1 (Homo sapiens, UniProt Q99705); assay: MCHr1 functional assay ([35S]GTPγS binding, membranes); format: biochemical; details: ED80 concentration of MCH, antagonist mode
T1 construct: purchased Euroscreen
Protocol: Membranes expressing recombinant hMCHr1 ([…] protein; Euroscreen) were prepared in assay buffer (50 mM HEPES, 100 mM NaCl, 5 mM MgCl2, 1 mM EDTA, 200 μM DTT, 20 μM GDP (Sigma) containing 0.1 μg/ml BSA, pH7.4) before assay. The assays were performed using membranes at 6 μg/well in an assay volume of 200 μL and the appropriate concentrations of compounds prepared in DMSO. The reaction was started by addition of 0.056 nM [^35S]GTPγS (Specific activity >1000 Ci/mmol; Amersham) and an ED80 concentration of MCH (determined for each membrane and each MCH batch). Non-specific binding was determined using 20 μM non-radiolabelled GTPγS. Plates were incubated for 45 min at 30° C. Free and bound GTPγS were separated by filtration binding using GF/B filter mats presoaked in wash buffer (50 mM Tris, 5 mM MgCl2, 50 mM NaCl, pH 7.4) using a Micro96 cell harvester (Skatron Instruments) and the filters then dried at 50° C. before counting using a 1450 Microbeta TRILUX (Wallac).
Data are means ±SD for experiments performed in triplicate. IC50 values of antagonists were determined using non-linear regression analysis of concentration response curves using Activity Base. For instance, the following IC50 values were obtained for the compounds of the following examples: […]

[1] = molecular target: T2, human Melanin concentrating hormone receptor 1 (hMCHr1) (Homo sapiens, UniProt Q99705); assay: MCH1 receptor radioligand binding (125I-MCH, CHO-K1 membranes); details: 125I-MCH displacement, membranes from CHO-K1 cells expressing hMCHr1; read-out: IC50 in human MCHr1 binding assay
T2 construct: purchased Euroscreen; host or cells: CHO-K1
Protocol: MCH1 Receptor Radioligand Binding.
Assays were performed on membranes prepared from CHO-K1 cells expressing the human Melanin concentrating hormone receptor 1 (hMCHr1, 5.45 pmol/mg protein; Euroscreen). Assays were performed in a 96-well plate format in a final reaction volume of 200 μl per well. Each well contained 6 μg of membrane proteins diluted in binding buffer (50 mM Tris, 3 mM MgCl2, 0.05% bovine serum albumin and the radioligand ^125I-MCH (IM344 Amersham) was added to give 10 000 cpm (counts per minute) per well. Each well contained 2 μl of the appropriate concentration of competitive antagonist prepared in DMSO and left to stand at 30° C. for 60 minutes. Non-specific binding was determined as that remaining following incubation with […] MCH (Melanin concentrating hormone, H-1482 Bachem). The reaction was terminated by transfer of the reaction to GF/A filters using a Micro96 Harvester (Skatron Instruments, Norway). Filters were washed with assay buffer. Radioligand retained on the filters was quantified using a 1450 Microbeta TRILUX (Wallac, Finland).
Non-specific binding was subtracted from all values determined. Maximum binding was that determined in the absence of any competitor following subtraction of the value determined for non-specific binding. Binding of compounds at various concentrations was plotted according to the equation
A is the bottom plateau of the curve i.e. the final minimum y value
B is the top of the plateau of the curve i.e. the final maximum y value
C is the x value at the middle of the curve. This represents the log EC50 value when A+B=100
D is, the slope factor. x is the original known x values. y is the original known y values.

HERG = HERG (Homo sapiens, UniProt Q12809); assay: HERG activity (planar-array-based voltage clamp); format: cell-based; details: modified planar-array voltage clamp method
Protocol: HERG testing was performed using a modified version of the method described by Kiss L, Bennett P B, Uebele V N, Koblan K S, Kane S A, Neagle B, Schroeder K. “High throughput ion-channel pharmacology: planar-array-based voltage clamp” Assay Drug Dev Technol. 1, 127-35. (2003).

T2 sequence (Q99705 whole entry): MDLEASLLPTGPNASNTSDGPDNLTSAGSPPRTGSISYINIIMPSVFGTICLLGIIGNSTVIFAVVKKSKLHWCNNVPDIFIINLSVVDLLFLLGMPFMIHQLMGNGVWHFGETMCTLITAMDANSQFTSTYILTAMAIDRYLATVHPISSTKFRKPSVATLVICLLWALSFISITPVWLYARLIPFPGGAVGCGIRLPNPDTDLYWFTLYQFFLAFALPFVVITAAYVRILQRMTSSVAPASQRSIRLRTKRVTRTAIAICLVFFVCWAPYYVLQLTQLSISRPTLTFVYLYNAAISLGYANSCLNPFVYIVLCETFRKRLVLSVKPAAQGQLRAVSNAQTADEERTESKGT
T1 sequence (Q99705 whole entry): as above
Chain of HERG (Q12809 whole entry): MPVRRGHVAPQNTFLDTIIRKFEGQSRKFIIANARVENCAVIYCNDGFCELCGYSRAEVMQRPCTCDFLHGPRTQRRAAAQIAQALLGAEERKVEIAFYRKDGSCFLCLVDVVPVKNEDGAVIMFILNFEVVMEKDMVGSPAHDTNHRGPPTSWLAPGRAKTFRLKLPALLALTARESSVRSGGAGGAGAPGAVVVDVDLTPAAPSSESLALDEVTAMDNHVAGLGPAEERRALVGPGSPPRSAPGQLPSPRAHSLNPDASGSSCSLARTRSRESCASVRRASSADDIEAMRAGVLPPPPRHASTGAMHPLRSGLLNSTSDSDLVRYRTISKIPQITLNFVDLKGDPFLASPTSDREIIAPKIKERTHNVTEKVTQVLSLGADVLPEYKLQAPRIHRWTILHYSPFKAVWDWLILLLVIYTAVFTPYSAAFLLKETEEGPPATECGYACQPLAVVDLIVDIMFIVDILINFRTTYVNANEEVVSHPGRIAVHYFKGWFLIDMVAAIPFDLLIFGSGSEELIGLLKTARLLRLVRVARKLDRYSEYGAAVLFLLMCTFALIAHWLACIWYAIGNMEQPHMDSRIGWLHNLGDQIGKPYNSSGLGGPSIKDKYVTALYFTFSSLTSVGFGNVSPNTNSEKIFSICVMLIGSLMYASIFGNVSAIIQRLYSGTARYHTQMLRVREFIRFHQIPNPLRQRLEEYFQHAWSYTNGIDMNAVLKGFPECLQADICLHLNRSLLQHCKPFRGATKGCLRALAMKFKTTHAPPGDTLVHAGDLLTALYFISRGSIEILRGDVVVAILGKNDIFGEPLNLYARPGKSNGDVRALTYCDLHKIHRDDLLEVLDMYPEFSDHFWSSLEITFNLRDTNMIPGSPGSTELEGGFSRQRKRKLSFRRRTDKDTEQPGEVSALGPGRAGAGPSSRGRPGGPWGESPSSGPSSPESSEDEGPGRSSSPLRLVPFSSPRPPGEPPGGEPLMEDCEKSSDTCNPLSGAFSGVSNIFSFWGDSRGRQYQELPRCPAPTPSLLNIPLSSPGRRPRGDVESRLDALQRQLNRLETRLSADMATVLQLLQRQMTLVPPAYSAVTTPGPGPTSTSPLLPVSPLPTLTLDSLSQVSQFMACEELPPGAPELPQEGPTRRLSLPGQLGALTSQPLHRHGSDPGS

SMILES	IC50 (recombinant hMCHr1)	IC50 [1]	IC50 (HERG)
O=C(NC1CCN(Cc2ccn(-c3ccc(C(F)(F)F)cc3)c2)CC1)C(c1ccccc1)c1ccccc1 [Example 1, 2,2-diphenyl-N-[1-({1-[4-(trifluoromethyl)phenyl]-1H-pyrrol-3-yl}methyl)piperidin-4-yl]acetamide]	42 nM	–	–
O=C(CC1CCN(Cc2ccn(-c3ccc(C(F)(F)F)cc3)c2)CC1)NCc1ccc(F)c(F)c1 [Example 2, N-(3,4-difluorobenzyl)-2-[1-({1-[4-(trifluoromethyl)phenyl]-1H-pyrrol-3-yl}methyl)piperidin-4-yl]acetamide]	112 nM	12 nM	–
O=C(NCCc1ccccc1)C1CCN(Cc2ccn(-c3ccc(C(F)(F)F)cc3)c2)CC1 [Example 3, N-(2-phenylethyl)-1-({1-[4-(trifluoromethyl)phenyl]-1H-pyrrol-3-yl}methyl)piperidine-4-carboxamide]	–	14 nM	–
O=C(Nc1ccc(Cl)cc1Cl)NC1CCN(Cc2ccn(-c3ccc(C(F)(F)F)cc3)c2)CC1 [Example 6, N-(2,4-dichlorophenyl)-N′-[1-({1-[4-(trifluoromethyl)phenyl]-1H-pyrrol-3-yl}methyl)piperidin-4-yl]urea]	–	72 nM	–
CC(O)CCNC(=O)NC1CCN(Cc2ccn(-c3ccc(C(F)(F)F)cc3)c2)CC1 (stereo not drawn) [Example 76, N-(3-hydroxybutyl)-N′-[1-({1-[4-(trifluoromethyl)phenyl]-1H-pyrrol-3-yl}methyl)piperidin-4-yl]urea]	–	–	> 5000 nM
